# Measured values as given in ChEMBL document CHEMBL1201862, “PubChem BioAssay data set” (2004).
#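 48-hour exposure; five concentrations; linearly interpolated endpoints. At the GI50, growth is halved.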 Calls of active or inactive are those of the source. No stated cut-off is given here; in the data, active = GI50 up to about 1.1 µM and inactive = higher.
# Tests used:
# Experiment in all cases: growth of human tumour cells (NCI), 48 h
# HOP-62 = tested on: HOP-62
# HT-29 = tested on: HT-29
# KM12 = tested on: KM12
# MCF7 = tested on: MCF7
# MDA-MB-231 = tested on: MDA-MB-231
# MDA-MB-435 = tested on: MDA-MB-435
# NCI-H226 = tested on: NCI-H226
# NCI-H23 = tested on: NCI-H23
# NCI-H460 = tested on: NCI-H460
# NCI-H522 = tested on: NCI-H522
# NCI/ADR-RES = tested on: NCI/ADR-RES
# OVCAR-3 = tested on: OVCAR-3
# OVCAR-5 = tested on: OVCAR-5
# OVCAR-8 = tested on: OVCAR-8
# RPMI-8226 = tested on: RPMI-8226
# SF-268 = tested on: SF-268
# SNB-19 = tested on: SNB-19
# SW-620 = tested on: SW-620
# UACC-62 = tested on: UACC-62
# UO-31 = tested on: UO-31
SMILES,GI50 (HOP-62),GI50 (HT-29),GI50 (KM12),GI50 (MCF7),GI50 (MDA-MB-231),GI50 (MDA-MB-435),GI50 (NCI-H226),GI50 (NCI-H23),GI50 (NCI-H460),GI50 (NCI-H522),GI50 (NCI/ADR-RES),GI50 (OVCAR-3),GI50 (OVCAR-5),GI50 (OVCAR-8),GI50 (RPMI-8226),GI50 (SF-268),GI50 (SNB-19),GI50 (SW-620),GI50 (UACC-62),GI50 (UO-31)
CC(C)NCC(O)c1ccc(O)c2ncccc12 (stereo not given),35.5 µM (inactive),36.4 µM (inactive),54.6 µM (inactive),7.28 µM (inactive),27 µM (inactive),> 100 µM (inactive),> 100 µM (inactive),11 µM (inactive),5.58 µM (inactive),47.2 µM (inactive),27.7 µM (inactive),16 µM (inactive),> 100 µM (inactive),33.3 µM (inactive),49.1 µM (inactive),35.3 µM (inactive),> 100 µM (inactive),36.5 µM (inactive),60 µM (inactive),67.6 µM (inactive)
C[C@@]1(c2ccccc2)O[C@@H]2C[C@H]3[C@@H]4CCC5=CC(=O)C=C[C@]5(C)[C@@]4(F)[C@@H](O)C[C@]3(C)[C@]2(C(=O)CO)O1 [AMCINAFIDE],15.6 µM (inactive),17 µM (inactive),16.4 µM (inactive),13.9 µM (inactive),11.1 µM (inactive),18.7 µM (inactive),15.8 µM (inactive),18.1 µM (inactive),14.6 µM (inactive),11.5 µM (inactive),15 µM (inactive),15 µM (inactive),15.6 µM (inactive),17.5 µM (inactive),< 0.01 µM (active),15.1 µM (inactive),24.7 µM (inactive),21.9 µM (inactive),16.7 µM (inactive),18.1 µM (inactive)
COC(=O)[C@]1(c2cc3ccccc3n2S(=O)(=O)c2ccccc2)CC2CCC1NC2 (stereo not given in full),18 µM (inactive),12.4 µM (inactive),15.1 µM (inactive),13.2 µM (inactive),14.1 µM (inactive),14.2 µM (inactive),14.6 µM (inactive),15.2 µM (inactive),14 µM (inactive),14.3 µM (inactive),16.6 µM (inactive),17 µM (inactive),16.1 µM (inactive),14.9 µM (inactive),6.65 µM (inactive),16.8 µM (inactive),14.8 µM (inactive),14.5 µM (inactive),14.5 µM (inactive),10.5 µM (inactive)
Nc1nc(Cl)c(C=O)c(NCC2(CO)CCC2)n1,25.4 µM (inactive),31.4 µM (inactive),43.1 µM (inactive),> 100 µM (inactive),22.9 µM (inactive),28.8 µM (inactive),15.4 µM (inactive),26.4 µM (inactive),31 µM (inactive),3.56 µM (inactive),40 µM (inactive),17.5 µM (inactive),> 100 µM (inactive),15 µM (inactive),39.7 µM (inactive),16.6 µM (inactive),17.1 µM (inactive),28.2 µM (inactive),14.3 µM (inactive),21.8 µM (inactive)
CC1=NN(c2nc(N)nc(CN3CCOCC3)n2)C(C)(C)C1,46.2 µM (inactive),> 100 µM (inactive),> 100 µM (inactive),> 100 µM (inactive),> 100 µM (inactive),> 100 µM (inactive),> 100 µM (inactive),> 100 µM (inactive),> 100 µM (inactive),14 µM (inactive),> 100 µM (inactive),> 100 µM (inactive),> 100 µM (inactive),> 100 µM (inactive),> 100 µM (inactive),> 100 µM (inactive),> 100 µM (inactive),> 100 µM (inactive),26.5 µM (inactive),18.1 µM (inactive)
Cc1ccc(C2(c3ccc(F)cc3)OC(=O)c3ccccc32)c(O)c1 (stereo not given),14.6 µM (inactive),17.7 µM (inactive),15.5 µM (inactive),17 µM (inactive),17.9 µM (inactive),12.4 µM (inactive),15 µM (inactive),19.9 µM (inactive),17 µM (inactive),14.5 µM (inactive),16.1 µM (inactive),3.56 µM (inactive),14.4 µM (inactive),18.2 µM (inactive),16.4 µM (inactive),19.5 µM (inactive),16.6 µM (inactive),13.6 µM (inactive),10.5 µM (inactive),5.5 µM (inactive)
COC(=O)c1ccc2c(c1)C(NC(C)=O)CCc1cc(OC)c(OC)c(OC)c1-2 (stereo not given),0.0158 µM (active),0.0125 µM (active),< 0.0115 µM (active),0.0612 µM (active),< 0.02 µM (active),< 0.01 µM (active),0.0424 µM (active),0.0136 µM (active),0.0259 µM (active),0.018 µM (active),0.0416 µM (active),< 0.0116 µM (active),0.112 µM (active),0.0154 µM (active),0.0151 µM (active),0.0139 µM (active),0.0183 µM (active),0.0129 µM (active),0.0131 µM (active),0.0721 µM (active)
OC1C2[C@@H](O)CCCN2C[C@@H](O)[C@H]1O (stereo not given in full),> 100 µM (inactive),> 100 µM (inactive),> 100 µM (inactive),> 100 µM (inactive),> 100 µM (inactive),> 100 µM (inactive),> 100 µM (inactive),> 100 µM (inactive),> 100 µM (inactive),71.1 µM (inactive),> 100 µM (inactive),> 100 µM (inactive),> 100 µM (inactive),> 100 µM (inactive),> 100 µM (inactive),> 100 µM (inactive),> 100 µM (inactive),> 100 µM (inactive),> 100 µM (inactive),> 100 µM (inactive)
CSC(=S)NN=C1CCCC1.CSC(=S)NN=C1CCCC1.[Zn+2],28.3 µM (inactive),19.5 µM (inactive),41 µM (inactive),34.7 µM (inactive),17.8 µM (inactive),28.4 µM (inactive),43.9 µM (inactive),> 100 µM (inactive),31.6 µM (inactive),15.7 µM (inactive),> 100 µM (inactive),24.6 µM (inactive),31.3 µM (inactive),14.4 µM (inactive),11.5 µM (inactive),34.1 µM (inactive),40.9 µM (inactive),17.1 µM (inactive),28.2 µM (inactive),13.4 µM (inactive)
Cc1cc2c(cc1-c1cc3c(cc1C)C(C(C)C)=C(O)C(=O)/C3=C\Nc1c3ccccc3nc3ccccc13)/C(=C/Nc1c3ccccc3nc3ccccc13)C(=O)C(O)=C2C(C)C,4.26 µM (inactive),1.54 µM (inactive),3.09 µM (inactive),3.17 µM (inactive),4.55 µM (inactive),4.6 µM (inactive),1.26 µM (inactive),3.66 µM (inactive),2.09 µM (inactive),1.13 µM (inactive),2.59 µM (inactive),3.47 µM (inactive),4.4 µM (inactive),2.3 µM (inactive),4.52 µM (inactive),3.36 µM (inactive),3.82 µM (inactive),2.9 µM (inactive),3.66 µM (inactive),3.03 µM (inactive)
COc1ccc(C(C)c2cc3c(cc2OC)OCO3)cc1 (stereo not given),0.124 µM (active),0.0798 µM (active),0.119 µM (active),0.0461 µM (active),0.112 µM (active),0.0175 µM (active),0.416 µM (active),0.169 µM (active),0.122 µM (active),0.0455 µM (active),0.0268 µM (active),0.107 µM (active),3.48 µM (inactive),0.269 µM (active),0.122 µM (active),0.614 µM (active),2.61 µM (inactive),0.0828 µM (active),0.2 µM (active),0.272 µM (active)
O=C(Nc1sccc1S(=O)(=O)c1ccc(Cl)cc1)c1ccc(Cl)cc1,39.4 µM (inactive),> 100 µM (inactive),> 100 µM (inactive),99.8 µM (inactive),35.2 µM (inactive),> 100 µM (inactive),> 100 µM (inactive),68.5 µM (inactive),56.5 µM (inactive),> 100 µM (inactive),> 100 µM (inactive),> 100 µM (inactive),> 100 µM (inactive),63 µM (inactive),> 100 µM (inactive),65.9 µM (inactive),44.2 µM (inactive),> 100 µM (inactive),> 100 µM (inactive),86.3 µM (inactive)
COc1ccc(OC)c2c1C=C[C@H](C1(C)SCCS1)C2C(C)=O (stereo not given in full),39.8 µM (inactive),18.7 µM (inactive),32.4 µM (inactive),35.4 µM (inactive),32.2 µM (inactive),23.9 µM (inactive),24 µM (inactive),22.6 µM (inactive),27.9 µM (inactive),13.9 µM (inactive),32.2 µM (inactive),29.3 µM (inactive),21.3 µM (inactive),44.2 µM (inactive),18.6 µM (inactive),29.6 µM (inactive),27.4 µM (inactive),33.1 µM (inactive),20.8 µM (inactive),24.2 µM (inactive)
NNC(=O)c1ccccc1Nc1ccccc1C(=O)NN,> 100 µM (inactive),> 100 µM (inactive),> 100 µM (inactive),> 100 µM (inactive),> 100 µM (inactive),> 100 µM (inactive),> 100 µM (inactive),> 100 µM (inactive),> 100 µM (inactive),> 100 µM (inactive),> 100 µM (inactive),> 100 µM (inactive),> 100 µM (inactive),> 100 µM (inactive),> 100 µM (inactive),> 100 µM (inactive),> 100 µM (inactive),> 100 µM (inactive),> 100 µM (inactive),> 100 µM (inactive)
